Assay results: patent US6194601A, “5,6-dihydronaphthalenyl derivatives having retinoid-like activity” (Bristol-Myers Squibb Company, priority 1999, dated 2001)
Entries after “also recorded” stand apart in the source; their conditions may differ. Like-named read-outs stand apart in the source and are kept apart here.

Key:
rhino mice [1] = experiment: rhino mouse assay, comedolytic activity (utriculi size reduction); format: in vivo; settings: for ED30: Table 4, topical activity; for ED30 (30% reduction in utriculi size): rhino mouse, FIG. 1 study
Protocol: (§1) The comedolytic activity of the compounds of the instant application has been evaluated by the rhino mouse assay model. The compounds were administered daily to rhino mice topically in ethanol at various concentrations for 5 days. Signs of skin irritation are evaluated at day 5 by visual inspection of the mouse skin and graded for edema, erythema (redness) and scaling (flakiness) with scales of 1-5 and 1-4, respectively. Skin samples were taken at day 7 and processed for image analysis to measure the size of utriculi.

rabbit skin = rabbit skin irritation model; format: in vivo; settings: for Erythema score: Table 3, topical daily 14 days, ethanol; for IS3, irritation relative to TRA: species not given
rhino mice [2] = system: rhino mice; set-up: species or system rhino mouse; settings: mouse, in vivo
Protocol: as §1

[3] = rabbit skin irritation model; format: in vivo; settings: rabbit, in vivo, topical or ocular; from IS3 and ED30, Table 4; read-out: Therapeutic index
[4] = system: SK-BR-3 Breast CA (E2-indep.); experiment: inhibition of cell proliferation (3H-thymidine uptake), SK-BR-3; format: cell-based; settings: Homo sapiens
Protocol: (§2) The compounds of the present invention have been also tested as inhibitors of cell proliferation (^3 H-thymidine uptake). Cells were plated on 96-well plates at a pre-determined density so that 80% cellular confluency is reached by day 7. 24 hr after plating, culture media was changed and cells were treated with the appropriate drug or vehicle (day 0). Culture media was changed on days 3 and 6. Cellular proliferation was measured on Day 7 by quantitating the amount of tritiated thymidine ([3H]-TdR) incorporated into the celular DNA (Odham, K. G. (1977) in: Radiotracer Techniques and Applications, edited by E. A. Evans and M. Murawatsu; M. Dekker Inc. New York; 2, 823).

RARγ = target: T1, RARγ (Homo sapiens, UniProt P13631); experiment: apparent Kd for binding to RARγ; settings: read-out: Kd (γ)
T1 sequence (P13631 1-454): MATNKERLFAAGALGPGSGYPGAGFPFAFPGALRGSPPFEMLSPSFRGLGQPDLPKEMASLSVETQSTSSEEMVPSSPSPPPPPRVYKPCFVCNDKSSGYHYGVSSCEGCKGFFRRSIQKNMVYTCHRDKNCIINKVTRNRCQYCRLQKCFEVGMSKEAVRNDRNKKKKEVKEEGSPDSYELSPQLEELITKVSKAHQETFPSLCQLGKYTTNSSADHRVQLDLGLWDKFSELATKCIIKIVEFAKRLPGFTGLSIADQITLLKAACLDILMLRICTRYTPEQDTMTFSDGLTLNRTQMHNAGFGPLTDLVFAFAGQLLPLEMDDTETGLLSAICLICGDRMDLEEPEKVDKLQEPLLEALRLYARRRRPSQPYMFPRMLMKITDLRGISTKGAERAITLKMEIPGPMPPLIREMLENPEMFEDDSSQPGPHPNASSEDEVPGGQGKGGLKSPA

MCF7 Breast CA (E2-dep.) = experiment: inhibition of cell proliferation (3H-thymidine uptake), MCF7; format: cell-based; settings: Homo sapiens
Protocol: as §2

[5] = system: H3396 (ER+) breast carcinoma subcutaneous xenografts; experiment: tumor growth inhibition in athymic mice bearing H3396 xenografts; format: in vivo; settings: intraperitoneal, every two days for 10 days
Protocol: This potent anti-proliferative activity is also translated in vivo on athymic mice bearing H3396 (ER+) breast carcinoma subcutaneous xenografts (P. A. Trail, et al., Cancer Research, 52, p. 5693-5700 (1992). Athymic mice were implanted with 0.72 mg (60-day release) estradiol pellets (Innovative Research of America, Toledo, Ohio) one day prior to the implantation of H3396 tumors. H3396 tumors were measured in two perpendicular directions at weekly or biweekly intervals, using calipers. Tumor volume was calculated according to the equation: V=I×w^2 /2, where V=volume (mm3), I=measurement of longest axis (mm), and w=measurement of axis perpendicular to 1. In general, there were 8-10 mice in each control or treatment group. Data are presented as median tumor size for control or treated groups. Antitumor activity is expressed in terms of median TVDD values, where TVDD=T-C/TVDT; T-C is defined as the median time (days) for treated tumors to reach 500 mm3 in size minus the median time for control tumors to reach 500 mm3 in size and TVDT is the time (days) for control tumors to double in volume (250-500 mm3).
In this experiment, the tumor growth delay was equivalent to 1.2 log cell kill at 30 mg/kg.

RARβ = target: T2, RARβ (Homo sapiens, UniProt P10826); experiment: apparent Kd for binding to RARβ; settings: read-out: Kd (β)
T2 sequence (P10826 1-455): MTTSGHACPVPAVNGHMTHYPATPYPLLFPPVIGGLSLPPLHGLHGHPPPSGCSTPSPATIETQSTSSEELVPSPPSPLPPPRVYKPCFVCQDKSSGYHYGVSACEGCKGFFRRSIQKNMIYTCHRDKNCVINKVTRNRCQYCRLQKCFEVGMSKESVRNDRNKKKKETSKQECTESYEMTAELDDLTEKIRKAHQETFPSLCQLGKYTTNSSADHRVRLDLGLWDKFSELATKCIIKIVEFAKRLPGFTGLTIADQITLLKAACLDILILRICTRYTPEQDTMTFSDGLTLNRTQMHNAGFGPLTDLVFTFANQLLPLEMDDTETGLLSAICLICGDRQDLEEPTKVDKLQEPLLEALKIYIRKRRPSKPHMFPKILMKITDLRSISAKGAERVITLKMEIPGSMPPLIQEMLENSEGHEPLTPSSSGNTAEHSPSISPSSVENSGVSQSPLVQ

SCC 25 tongue SCC = experiment: inhibition of cell proliferation (3H-thymidine uptake), SCC 25; format: cell-based; settings: Homo sapiens
Protocol: as §2

[6] = system: Detroit 562 Pharyngeal CA; experiment: inhibition of cell proliferation (3H-thymidine uptake), Detroit 562; format: cell-based; settings: Homo sapiens
Protocol: as §2

[7] = system: H3396 Breast CA (E2-dep.); experiment: inhibition of cell proliferation (3H-thymidine uptake), H3396; format: cell-based; settings: Homo sapiens
Protocol: as §2

RARα = target: T3, RARα (Homo sapiens, UniProt P10276); experiment: apparent Kd for binding to RARα; settings: read-out: Kd (α)
T3 sequence (P10276 1-462): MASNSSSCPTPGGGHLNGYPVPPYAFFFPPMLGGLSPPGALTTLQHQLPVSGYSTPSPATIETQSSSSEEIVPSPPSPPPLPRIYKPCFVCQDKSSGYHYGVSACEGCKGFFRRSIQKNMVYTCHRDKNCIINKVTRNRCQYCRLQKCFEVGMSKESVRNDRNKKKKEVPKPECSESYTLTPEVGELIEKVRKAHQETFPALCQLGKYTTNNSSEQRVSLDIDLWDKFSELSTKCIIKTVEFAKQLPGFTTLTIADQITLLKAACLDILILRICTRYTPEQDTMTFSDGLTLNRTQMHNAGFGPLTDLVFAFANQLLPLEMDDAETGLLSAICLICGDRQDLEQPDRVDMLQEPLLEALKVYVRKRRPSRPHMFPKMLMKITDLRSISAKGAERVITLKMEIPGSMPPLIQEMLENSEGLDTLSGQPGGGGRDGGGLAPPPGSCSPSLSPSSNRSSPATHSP

Calu-3 Lung CA = experiment: inhibition of cell proliferation (3H-thymidine uptake), Calu-3; format: cell-based; settings: Homo sapiens
Protocol: as §2

[8] = topical daily in ethanol, 5 days
[9] = species and concentration not given
[10] = 7 days, 3H-thymidine, read-out: IC50

## 4-[(E)-(5,6-Dihydro-5,5-dimethyl-8-(1-methyl-1-ethane-thio)-2-naphthalenyl)ethenyl]benzoic acid [Compound D]
Rhino mice [1]; [8]
  Utriculi reduction at 0.1 mM: 85.4%
Rhino mice [1]
  ED30: < 100 µM
Rabbit skin; concentration not given
  Erythema score: 5.7
Rabbit skin; [9]
  IS3, irritation in words: Very irritating
Rabbit skin
  IS3, irritation relative to TRA: >>TRA

## CC1=C(C#CC(C)(C)C)c2cc(/C=C/c3ccc(C(=O)O)cc3)ccc2C(C)(C)C1 [Compound A, 4-[(E)-(5,6-Dihydro-5,5-dimethyl-7-methyl-8-(3,3-dimethyl-1-butyn-1-yl)-2-naphthalenyl)ethenyl]benzoic acid]
Rhino mice [2]
  IS3, irritation in words: Very irritating
Rhino mice [1]; [8]
  Utriculi reduction at 0.1 mM: 100%
Rhino mice [1]
  ED30: < 100 µM
Rabbit skin; concentration not given
  Erythema score: 3.1

## CCC(C)(/C=C\C1=CCC(C)(C)c2ccc(/C=C/c3ccc(C(=O)O)cc3)cc21)CC [Compound B, 4-[(E)-(5,6-Dihydro-5,5-dimethyl-8-((Z)-3-methyl-3-ethyl-1-penten-1-yl)-2-naphthalenyl)ethenyl]benzoic acid]
Rhino mice [1]; 1.6 mM, topical daily in ethanol, 5 days
  Utriculi reduction (at 1.6 mM, printed in the 1 mM column): 100%
Rabbit skin; concentration not given
  Erythema score: 2.8
Rabbit skin; [9]
  IS3, irritation in words: Irritating
Rabbit skin
  IS3, irritation relative to TRA: <TRA

## CC(C)(C)/C=C\C1=CCC(C)(C)c2ccc(/C=C/c3ccc(C(=O)O)cc3)cc21 [Compound C, 4-[(E)-(5,6-Dihydro-5,5-dimethyl-8-((Z)-3,3-dimethyl-1-buten-1-yl)-2-naphthalenyl)ethenyl]benzoic acid]
Rhino mice [2]
  IS3, irritation in words: Very irritating
Rhino mice [1]; 0.01 mM, topical daily in ethanol, 5 days
  Utriculi reduction (at 0.01 mM, printed in the 0.1 mM column): 30%
Rhino mice [1]
  ED30: 80 µM
[3]
  selectivity ratio: < 20
Rabbit skin; concentration not given
  Erythema score: 6.0
Rabbit skin; in rabbits, concentration not given
  IS3, irritation in words: Very irritating

## CC(C)(C)C#CC1=CCC(C)(C)c2ccc(/C=C/c3ccc(C(=O)O)cc3)cc21 [Compound I, 4-[(E)-(5,6-Dihydro-5,5-dimethyl-8-(3,3-dimethyl-1-butyn-1-yl)-2-naphthalenyl)ethenyl]benzoic acid]
[4]; [10]
  IC50: 0.008 µM
RARγ
  Kd: 0.025 µM
MCF7 Breast CA (E2-dep.); [10]
  IC50: 6.5 µM
Rhino mice [1]; [8]
  Utriculi reduction at 0.1 mM: 72%
  Utriculi reduction at 1 mM: 100%
Rhino mice [1]
  ED30: 55 µM
  ED30 (30% reduction in utriculi size): 55 µM
[5]; 30 mg/kg
  tumor growth delay equivalent (log cell kill): 1.2 log cell kill
[5]; FIG. 3
  potency in inhibiting tumor growth compared with doxorubicin: as potent as doxorubicin
RARβ
  Kd: 0.00126 µM
SCC 25 tongue SCC; [10]
  IC50: 9.5 µM
[6]; [10]
  IC50: 5.5 µM
[3]
  selectivity ratio: > 99
Rabbit skin
  therapeutic index compared with TRA and analogs: highly superior to TRA and to most of the closely related analogs
Rabbit skin; 1 mM, 14 days, FIG. 2
  irritation to rabbit skin: did not cause any irritation
Rabbit skin; 5 mM
  irritation to rabbit skin: did not cause any signs of irritation to rabbit skin; also recorded: did not show any signs of irritation
Rabbit skin; concentration not given
  Erythema score: 0
Rabbit skin; in rabbits at 5 mM
  IS3, irritation in words: No irritation
[7]; [10]
  IC50: 0.04 µM
RARα
  Kd: 0.00223 µM
Calu-3 Lung CA; [10]
  IC50: 0.01 µM

## CC(C)(O)/C=C\C1=CCC(C)(C)c2ccc(/C=C/c3ccc(C(=O)O)cc3)cc21 [II, 4-[(E)-(5,6-Dihydro-5,5-dimethyl-8-((Z)-3-methyl-3-hydroxyl-1-buten-1-yl)-2-naphthalenyl)ethenyl]benzoic acid]
Rhino mice [2]
  IS3, irritation in words: No irritation
RARγ
  Kd: 0.00157 µM
Rhino mice [1]; [8]
  Utriculi reduction at 0.1 mM: 8.4%
  Utriculi reduction at 1 mM: 84%
Rhino mice [1]
  ED30: 400 µM
RARβ
  Kd: 0.00219 µM
Rabbit skin; concentration not given
  Erythema score: 0
RARα
  Kd: 0.0016 µM

## CC1=C(/C=C/C(C)=C/C=C/C(C)=C/C(=O)O)C(C)(C)CCC1 [TRA, All-trans retinoic acid]
[4]
  IC50: 0.001 µM
MCF7 Breast CA (E2-dep.)
  IC50: 0.65 µM
Rhino mice [1]; [8]
  Utriculi reduction at 0.1 mM: 64%
  Utriculi reduction at 1 mM: 100%
Rhino mice [1]
  ED30: 15 µM
  ED30 (30% reduction in utriculi size): 28 µM
SCC 25 tongue SCC
  IC50: 0.05 µM
[6]
  IC50: > 10 µM
Rabbit skin; concentration not given
  Erythema score: 4.8
Rabbit skin; Table 4
  IS3 (concentration necessary to achieve an irritation score of 3): 0.3 mM
Rabbit skin; concentrations above 0.1 mM, 14 days, FIG. 2
  irritation to rabbit skin: caused significant irritation to rabbit skin
[7]
  IC50: 0.3 µM
Calu-3 Lung CA
  IC50: 0.1 µM
